From patent publication US20260200939A1, “MOLECULAR GLUE DEGRADER COMPOUNDS AND USES THEREOF” (Novartis AG, priority 2022, published 2026) come the findings set out here.

One assay deals with T1, BRD4 long (Homo sapiens, UniProt O60885).
T1 construct: endogenous in cells; host or cells: HEK293T
As to the kind of experiment: BRD4 (long) degradation assay, Western blotting. The format is cell-based. The procedure, abridged: (§1)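 Cell lines were grown at 37° C with 5% CO2 (HEK293T and C33A in DMEM, A549 in F-12K, 22RV1, LNCaP and Mino in RPMI-1640, K562 and MV-4-11 in IMDM, all with 10% FBS). Lysates were BCA-normalized, then SDS/PAGE Western blots were probed with target-specific antibodies and read by IR680/IR800 fluorescent secondaries on Li-Cor.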
For orientation: A western blot detects proteins with antibodies after separation by electrophoresis.

A further assay has as its target T2, BRD4 short (Homo sapiens, UniProt O60885).
T2 construct: endogenous in cells; host or cells: HEK293T
Kind of assay: BRD4 (short) degradation assay, Western blotting. Format: cell-based. The method, boiled down: as §1

Setting [1] is: first value of cell (long/short).
Setting [2] is: second value of cell (long/short).
[3] abbreviates: first value of cell, range with lower bound in nM and upper bound in μM.
Where [4] appears, read: second value of cell, range with lower bound in nM and upper bound in μM.

One may read the DC50 as the midpoint of the concentration-degradation curve. The low end stands for a more potent degrader, the high end for a less potent degrader. For the molecule `COc1ccc(C(=O)/C=C/C(=O)N[C@H]2C[C@H](NC(=O)C[C@@H]3N=C(c4ccc(Cl)cc4)c4c(sc(C)c4C)-n4c(C)nnc43)C2)c(Cl)c1` [Compound 241, (E)-4-(2-chloro-4-methoxyphenyl)-N-((1S,3r)-3-(2-((S)-4-(4-chlorophenyl)-2,3,9-trimethyl-6H-thieno[3,2-f][1,2,4]triazolo[4,3-a][1,4]diazepin-6-yl)acetamido)cyclobutyl)-4-oxobut-2-enamide], the DC50 on BRD4 long (setting [1]) was found to be 90 nM; at BRD4 short (setting [2]), 180 nM.

Turning to `Cc1sc2c(c1C)C(c1ccc(Cl)cc1)=N[C@@H](CC(=O)N1CCN(C(=O)/C=C/C(=O)c3ccc(=O)n(C)c3)CC1)c1nnc(C)n1-2` [Compound 242, (S,E)-1-(4-(2-(4-(4-chlorophenyl)-2,3,9-trimethyl-6H-thieno[3,2-f][1,2,4]triazolo[4,3-a][1,4]diazepin-6-yl)acetyl)piperazin-1-yl)-4-(1-methyl-6-oxo-1,6-dihydropyridin-3-y1)but-2-ene-1,4-dione], the DC50 at BRD4 long (setting [1]) stood at 80 nM; at BRD4 short (setting [2]), 40 nM.

For `Cc1sc2c(c1C)C(c1ccc(Cl)cc1)=N[C@@H](CC(=O)N[C@H]1C[C@@H](NC(=O)/C=C/C(=O)c3ccc(=O)n(C)c3)C1)c1nnc(C)n1-2` [Compound 243, (E)-N-((1R,3s)-3-(2-((S)-4-(4-chlorophenyl)-2,3,9-trimethyl-6H-thieno[3,2-f][1,2,4]triazolo[4,3-a][1,4]diazepin-6-yl)acetamido)cyclobutyl)-4-(1-methyl-6-oxo-1,6-dihydropyridin-3-yl)-4-oxobut-2-enamide], the DC50 at BRD4 long (setting [3]) and on BRD4 short (setting [4]) was 100 to 1000 nM throughout.

In the case of `Cc1sc2c(c1C)C(c1ccc(Cl)cc1)=N[C@@H](CC(=O)N[C@H]1C[C@H](NC(=O)/C=C/C(=O)c3ccc(=O)n(C)c3)C1)c1nnc(C)n1-2` [Compound 244, (E)-N-((1S,3r)-3-(2-((S)-4-(4-chlorophenyl)-2,3,9-trimethyl-6H-thieno[3,2-f][1,2,4]triazolo[4,3-a][1,4]diazepin-6-yl)acetamido)cyclobutyl)-4-(1-methyl-6-oxo-1,6-dihydropyridin-3-yl)-4-oxobut-2-enamide], the DC50 was 100 to 1000 nM at BRD4 long (setting [3]) and 1000 nM on BRD4 short (setting [2]).

Regarding `Cc1sc2c(c1C)C(c1ccc(Cl)cc1)=N[C@@H](CC(=O)N1CCN(C(=O)/C=C/C(=O)N3CCN(C)CC3)CC1)c1nnc(C)n1-2` [Compound 245, (S,E)-1-(4-(2-(4-(4-chlorophenyl)-2,3,9-trimethyl-6H-thieno[3,2-f][1,2,4]triazolo[4,3-a][1,4]diazepin-6-yl)acetyl)piperazin-1-yl)-4-(4-methylpiperazin-1-yl)but-2-ene-1,4-dione], the half-maximal degradation concentration (DC50) at BRD4 long (setting [1]) and at BRD4 short (setting [2]) was over 5000 nM in each case.

On to `COc1ccc(NC(=O)/C=C/C(=O)N2CCN(C(=O)C[C@@H]3N=C(c4ccc(Cl)cc4)c4c(sc(C)c4C)-n4c(C)nnc43)CC2)cc1` [Compound 246, (S,E)-4-(4-(2-(4-(4-chlorophenyl)-2,3,9-trimethyl-6H-thieno[3,2-f][1,2,4]triazolo[4,3-a][1,4]diazepin-6-yl)acetyl)piperazin-1-yl)-N-(4-methoxyphenyl)-4-oxobut-2-enamide], for which the DC50 on BRD4 long (setting [1]) is over 5000 nM; on BRD4 short (setting [4]), 100 to 1000 nM.

With `Cc1sc2c(c1C)C(c1ccc(Cl)cc1)=N[C@@H](CC(=O)N1CCN(C(=O)/C=C/C(=O)Nc3cccn(C)c3=O)CC1)c1nnc(C)n1-2` [Compound 247, (S,E)-4-(4-(2-(4-(4-chlorophenyl)-2,3,9-trimethyl-6H-thieno[3,2-f][1,2,4]triazolo[4,3-a][1,4]diazepin-6-yl)acetyl)piperazin-1-yl)-N-(1-methyl-2-oxo-1,2-dihydropyridin-3-yl)-4-oxobut-2-enamide], the DC50 at BRD4 long (setting [3]) and at BRD4 short (setting [4]) was 100 to 1000 nM throughout.

As to `Cc1sc2c(c1C)C(c1ccc(Cl)cc1)=N[C@@H](CC(=O)N1CCN(C(=O)/C=C/C(=O)N3CCOCC3)CC1)c1nnc(C)n1-2` [Compound 248, (S,E)-1-(4-(2-(4-(4-chlorophenyl)-2,3,9-trimethyl-6H-thieno[3,2-f][1,2,4]triazolo[4,3-a][1,4]diazepin-6-yl)acetyl)piperazin-1-yl)-4-morpholinobut-2-ene-1,4-dione], the DC50 on BRD4 long (setting [1]) and on BRD4 short (setting [2]) was over 5000 nM each time.

For the molecule `Cc1sc2c(c1C)C(c1ccc(Cl)cc1)=N[C@@H](CC(=O)N[C@H]1C[C@@H](NC(=O)/C=C/C(=O)N3CCOCC3)C1)c1nnc(C)n1-2` [Compound 249, (E)-N-((1R,3s)-3-(2-((S)-4-(4-chlorophenyl)-2,3,9-trimethyl-6H-thieno[3,2-f][1,2,4]triazolo[4,3-a][1,4]diazepin-6-yl)acetamido)cyclobutyl)-4-morpholino-4-oxobut-2-enamide], the DC50 on BRD4 long (setting [1]) and at BRD4 short (setting [2]) was over 5000 nM throughout.

For `Cc1sc2c(c1C)C(c1ccc(Cl)cc1)=N[C@@H](CC(=O)N[C@H]1C[C@H](NC(=O)/C=C/C(=O)N3CCOCC3)C1)c1nnc(C)n1-2` [Compound 250, (E)-N-((1S,3r)-3-(2-((S)-4-(4-chlorophenyl)-2,3,9-trimethyl-6H-thieno[3,2-f][1,2,4]triazolo[4,3-a][1,4]diazepin-6-yl)acetamido)cyclobutyl)-4-morpholino-4-oxobut-2-enamide], the DC50 at BRD4 long (setting [1]) and on BRD4 short (setting [2]) was over 5000 nM throughout.

In the case of `COc1ccc2c(c1)CCCN2C(=O)/C=C/C(=O)N1CCN(C(=O)C[C@@H]2N=C(c3ccc(Cl)cc3)c3c(sc(C)c3C)-n3c(C)nnc32)CC1` [Compound 251, (S,E)-1-(4-(2-(4-(4-chlorophenyl)-2,3,9-trimethyl-6H-thieno[3,2-f][1,2,4]triazolo[4,3-a][1,4]diazepin-6-yl)acetyl)piperazin-1-yl)-4-(6-methoxy-3,4-dihydroquinolin-1(2H)-yl)but-2-ene-1,4-dione], the DC50 was over 5000 nM on BRD4 long (setting [1]) and 10 to 100 nM on BRD4 short (setting [2]).

Regarding `COc1ccc2c(c1)CCN(C(=O)/C=C/C(=O)N1CCN(C(=O)C[C@@H]3N=C(c4ccc(Cl)cc4)c4c(sc(C)c4C)-n4c(C)nnc43)CC1)C2` [Compound 252, (S,E)-1-(4-(2-(4-(4-chlorophenyl)-2,3,9-trimethyl-6H-thieno[3,2-f][1,2,4]triazolo[4,3-a][1,4]diazepin-6-yl)acetyl)piperazin-1-yl)-4-(6-methoxy-3,4-dihydroisoquinolin-2(1H)-y1)but-2-ene-1,4-dione], the DC50 at BRD4 long (setting [1]) and at BRD4 short (setting [2]) was over 5000 nM throughout.

As to `Cc1sc2c(c1C)C(c1ccc(Cl)cc1)=N[C@@H](CC(=O)NC1CC(NC(=O)/C=C/C(=O)N3CC4(COC4)C3)C1)c1nnc(C)n1-2` (stereo partly drawn) [Compound 253, (S,E)-N-(3-(2-(4-(4-chlorophenyl)-2,3,9-trimethyl-6H-thieno[3,2-f][1,2,4]triazolo[4,3-a][1,4]diazepin-6-yl)acetamido)cyclobutyl)-4-oxo-4-(2-oxa-6-azaspiro[3.3]heptan-6-yl)but-2-enamide], the DC50 on BRD4 long (setting [1]) and at BRD4 short (setting [2]) was over 5000 nM throughout.

In the case of `Cc1sc2c(c1C)C(c1ccc(Cl)cc1)=N[C@@H](CC(=O)N[C@H]1C[C@@H](NC(=O)/C=C/C(=O)C(C)(C)C)C1)c1nnc(C)n1-2` [Compound 277, (E)-N-((1R,3s)-3-(2-((S)-4-(4-chlorophenyl)-2,3,9-trimethyl-6H-thieno[3,2-f][1,2,4]triazolo[4,3-a][1,4]diazepin-6-yl)acetamido)cyclobutyl)-5,5-dimethyl-4-oxohex-2-enamide], the DC50 at BRD4 long (setting [1]) and at BRD4 short (setting [2]) was 10 to 100 nM throughout.

Consider `Cc1sc2c(c1C)C(c1ccc(Cl)cc1)=N[C@@H](CC(=O)N[C@H]1C[C@H](NC(=O)/C=C/C(=O)C(C)(C)C)C1)c1nnc(C)n1-2` [Compound 278, (E)-N-((1S,3r)-3-(2-((S)-4-(4-chlorophenyl)-2,3,9-trimethyl-6H-thieno[3,2-f][1,2,4]triazolo[4,3-a][1,4]diazepin-6-yl)acetamido)cyclobutyl)-5,5-dimethyl-4-oxohex-2-enamide], for which the DC50 on BRD4 long (setting [1]) and on BRD4 short (setting [2]) was 10 to 100 nM in each case.

Turning to `COc1ccc(/C=C/S(=O)(=O)N2CCN(C(=O)C[C@@H]3N=C(c4ccc(Cl)cc4)c4c(sc(C)c4C)-n4c(C)nnc43)CC2)cc1` [Compound 279, (S,E)-2-(4-(4-chlorophenyl)-2,3,9-trimethyl-6H-thieno[3,2-f][1,2,4]triazolo[4,3-a][1,4]diazepin-6-yl)-1-(4-((4-methoxystyryl)sulfonyl)piperazin-1-yl)ethan-1-one], the DC50 on BRD4 long (setting [1]) and on BRD4 short (setting [2]) was over 5000 nM in each case.

For `Cc1sc2c(c1C)C(c1ccc(Cl)cc1)=N[C@@H](CC(=O)N[C@H]1C[C@H](NC(=O)/C=C/C(=O)c3ccc(Cl)cc3Cl)C1)c1nnc(C)n1-2` [Compound 281, (E)-N-((1S,3r)-3-(2-((S)-4-(4-chlorophenyl)-2,3,9-trimethyl-6H-thieno[3,2-f][1,2,4]triazolo[4,3-a][1,4]diazepin-6-yl)acetamido)cyclobutyl)-4-(2,4-dichlorophenyl)-4-oxobut-2-enamide], the DC50 on BRD4 long (setting [3]) and on BRD4 short (setting [4]) was 100 to 1000 nM in each case.

As to `Cc1sc2c(c1C)C(c1ccc(Cl)cc1)=N[C@@H](CC(=O)N[C@H]1C[C@H](NC(=O)/C=C/C(=O)c3cccc(Cl)c3Cl)C1)c1nnc(C)n1-2` [Compound 287, (E)-N-((1S,3r)-3-(2-((S)-4-(4-chlorophenyl)-2,3,9-trimethyl-6H-thieno[3,2-f][1,2,4]triazolo[4,3-a][1,4]diazepin-6-yl)acetamido)cyclobutyl)-4-(2,3-dichlorophenyl)-4-oxobut-2-enamide], the DC50 at BRD4 long (setting [1]) and on BRD4 short (setting [2]) was 1000 to 5000 nM each time.
